# In patent publication US11952364B2, “TRK inhibitors useful as anticancer drugs” (TYLIGAND BIOSCIENCE (SHANGHAI) LIMITED, priority 2018, dated 2024):
# Like-named read-outs stand apart in the source and are kept apart here.
# What was measured:
# [1] = molecular target: P450 2D6 (Homo sapiens (Human), UniProt P10635); assay: Cytochrome P450 inhibition in human liver microsomes; assay type: in vitro ADME
# Source text: According to the standard methods conventional in the art for cytochrome P450 enzyme system study, for example those described in Kerns, Edward H. and Di Li (2008). Drug-like Properties: Concepts. Structure Design and Methods: from ADME to Toxicity Optimization. San Diego: Academic Press; Lin, Tong et al., In Vitro Assessment of Cytochrome P450 Inhibition: Strategies for Increasing LC/MS-Based Assay Throughput Using a One-Point IC50 Method and Multiplexing High-Performance Liquid Chromatography; J. Pharm. Sci. 2007, 96(9), 2485.), the inhibitory effect of the compounds of the present disclosure on the cytochrome P450 enzyme system was investigated analogously as follows. The test compounds were evaluated by detecting the metabolism of human liver microsomes for the substrates of different subtypes of Cyp450. The liver microsomes (Sekisui XenoTech, LLC., human liver microsomes, cat. #H0610) were slowly melted on ice, and 0.482 mL of the liver microsome solution (20 mg/mL) was added to 30 mL of 100 mM potassium phosphate solution to prepare a liver microsome working solution with a concentration of 0.316 mg/mL. The test compound and specific inhibitors of different Cyp450 subtypes (as a control) were prepared into 10 mM DMSO solutions, and then 20 μL of the 10 mM DMSO compound solution was added to 180 μL of acetonitrile to obtain a 1 mM compound solution. 2 μL of such 1 mM test compound or inhibitor solution was added to 150 μL of 0.316 mg/mL liver microsome working solution to obtain a 13.16 μM compound working solution. 45.3 mg of NADPH (SIGMA, cat. #V900362) was weighted and added into 13.59 mL of deionized water to prepare a 4 mM NADPH aqueous solution. 0.2 mL of 2 mg/mL internal standard stock solution (dexamethasone in acetonitrile) was added to 1000 mL of acetonitrile (SIGMA, cat. #271004) to prepare a reaction stop solution and stored at 4° C. 150 μL 0.316 mg/mL human liver microsome working solution was added to each well of a 96-well deep plate, and 2 μL of 1 mM specific inhibitor or test compound solution was added to the corresponding wells, and then added to each well 50 μL preheated working solution of each substrate (in 4 mM NADPH solution). After incubating for 5-40 minutes respectively (different enzymes have different incubation times), 200 μL of pre-cooled reaction stop solution was added. All samples were centrifuged at 4000 rpm for 20 minutes. 150 μL of the centrifugal supernatant was then added to a new 96-well deep plate, and added to each well 150 μL of 0.1% formic acid aqueous solution, for analysis by LC/MS/MS (SCI AP4000). The single point IC50 values were calculated according to the following formula. [formula] • (Assuming Hill slope=1) • C0=concentration of test compound and inhibitor solution
# [2] = Metabolic stability in liver microsomes; assay type: in vitro ADME; settings: pH 7.4; for half-life at 1 µM: read-out: T½
# Source text: According to standard methods conventional in the art for in vitro metabolic stability studies, for example those protocols described in Kems, Edward H. and Di Li (2008). Drug-like Properties: Concepts. Structure Design and Methods: from ADME to Toxicity Optimization. San Diego: Academic Press; Di, Li et al., Optimization of a Higher Throughput Microsomal Stability Screening Assay for Profiling Drug Discovery Candidates, J. Biomol. Screen. 2003, 8(4), 453., the metabolic stability test in liver microsomes of the present compound was performed analogously as follows.
# The in vitro metabolic stability of the compound in 5 species (mouse, rat, dog, monkey, and human) was evaluated by liver microsomal stability test. 0.1M potassium phosphate buffer solution (pH 7.4, containing 1.0 mM EDTA) was prepared. The test compound and the control compound were prepared into a 10 mM DMSO solution, and then 10 μL of the 10 mM DMSO compound solution was added to 190 μL of acetonitrile to prepare a 500 μM compound solution. Liver microsomes (Sekisui XenoTech, LLC., human liver microsomes, cat. #H0610; Beagle dog liver microsomes, cat. #D1000; cynomolgus monkey liver microsomes, cat. #P2073; rat liver microsomes, cat. #R1073; mouse Liver microsomes, cat. #M1000) were taken and slowly melted on ice, then 18.75 μL of the liver microsome solution (20 mg/mL) and 1.5 μL of 500 μM compound solution were added to 479.75 μL of 0.1M potassium phosphate buffer solution to prepare a 0.75 mg/mL liver microsome working solution with a concentration of 1.5 μM compound. 6 mM NADPH (SIGMA, cat. #V900362) aqueous solution was prepared. 0.2 mL 2 mg/mL internal standard stock solution (imipramine solution in acetonitrile) was added to 1000 mL acetonitrile (SIGMA, cat. #271004) to prepare the reaction stop solution and stored at 4° C.
# Six deep-well plates were labeled as T0, T5, T15, T30, T45 and NCF60 (negative control, without NADPH). 30 μL of […] control compound or test compound solution in 0.75 mg/mL liver microsome working solution was added to each well of the corresponding plates. After being sealed with film, all the microplates were placed in a 37° C. water bath to preheat for 5 minutes, and 6 mM NADPH solution was placed in a 37° C. water bath to preheat for 5 minutes. Then 15 μL of NADPH solution was added to each cell successively in reverse time order, that is, first adding the T45 plate, 15 minutes later the T30 plate, 15 minutes later again the T15 plate, and 10 minutes later gain the T5 plate. NCF60 plate was not added with NADPH but 15 μL of deionized water. At this time, to the TO plate were added 135 μL of ice-cooled reaction stop solution and 15 μL of NADPH solution. By the end of the reaction, 135 μL of ice-precooled reaction stop solution was added successively to each well of the T5, T15, T30, and T45 plates. All samples were centrifuged at 4° C. at 600 rpm for 10 minutes, and then at 5594 g for 15 minutes (Thermo Multifugex 3R). Six 96-well plates were respectively labeled and added 50 μL of ultrapure water (Millipore, ZMQS50F01) to each well, then 50 μL of the centrifuged supernatant was added to the corresponding well of the corresponding plate, for LC-MS/MS-014 (API4000), UPLC-MS/MS-11 (API4000), LC-MS/MS-034 (API-6500+) analysis. The concentration (C0) of the test compound at TO time point was taken as 100%, and the concentrations at other incubation time points were converted into residue percentages.
# The natural logarithm of the residue percentage at each time point was subjected to linearly regression as a factor of incubation time to obtain Slope k, and then the liver microsome clearance rate (CLint^mic) and in vitro half-life (T½) were calculated according to the following formula: […]
# Sequence of P450 2D6 (P10635 whole entry): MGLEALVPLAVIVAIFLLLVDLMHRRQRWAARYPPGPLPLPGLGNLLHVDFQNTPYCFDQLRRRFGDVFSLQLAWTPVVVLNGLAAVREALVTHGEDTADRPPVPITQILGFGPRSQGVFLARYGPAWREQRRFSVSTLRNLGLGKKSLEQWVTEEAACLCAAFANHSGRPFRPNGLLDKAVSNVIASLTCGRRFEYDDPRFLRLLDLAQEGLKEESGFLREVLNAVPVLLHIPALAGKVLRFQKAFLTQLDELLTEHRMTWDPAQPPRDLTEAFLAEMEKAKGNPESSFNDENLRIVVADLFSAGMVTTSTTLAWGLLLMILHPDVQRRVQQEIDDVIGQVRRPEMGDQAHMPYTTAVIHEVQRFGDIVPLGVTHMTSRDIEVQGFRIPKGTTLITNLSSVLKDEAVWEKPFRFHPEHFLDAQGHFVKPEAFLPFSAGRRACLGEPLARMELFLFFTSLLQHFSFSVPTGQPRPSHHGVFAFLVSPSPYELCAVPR
Structure (SMILES),IC50 [1] [µM],"CLint scaled at 1 µM ([2]; Beagle, dog liver microsomes) [mL/min/kg]","half-life at 1 µM ([2]; Beagle, dog liver microsomes) [min]",CLint scaled at 1 µM ([2]; human liver microsomes) [mL/min/kg],half-life at 1 µM ([2]; human liver microsomes) [min],CLint scaled at 1 µM ([2]; mouse liver microsomes) [mL/min/kg],half-life at 1 µM ([2]; mouse liver microsomes) [min],CLint scaled at 1 µM ([2]; rat liver microsomes) [mL/min/kg],half-life at 1 µM ([2]; rat liver microsomes) [min]
"COc1ccc(C(=O)Nc2ccc(Oc3cc4cnn(C)c4cc3-c3cn[nH]c3)c(F)c2)c(=O)n1-c1ccc(F)cc1 [Example 12, N-(3-fluoro-4-(1-methyl-6-(1H-pyrazol-4-yl)-1H-indazol-5-yloxy)phenyl)-1-(4-fluorophenyl)-6-methoxy-2-oxo-1,2-dihydropyridine-3-carboxamide]",> 10,46.5,74.3,6.03,288,63.3,39.2,74.4,73.4
"Cc1ccc(C(=O)Nc2ccc(Oc3cc4cnn(C)c4cc3-c3cn[nH]c3)c(F)c2)c(=O)n1-c1ccc(F)cc1 [Merestinib, reference compound]",> 10,38.4,89.9,22,79,90.3,27.5,105,52
